Assay results: ChEMBL document CHEMBL1201862, “PubChem BioAssay data set” (2004)
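In this assay, cells in 96-well plates receive the compound at five concentrations for 48 hours. Endpoints are linearly interpolated between the surrounding concentrations. Here, GI50 denotes the concentration required for 50% inhibition of growth.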 Active and inactive are the calls of the source. Rule as the data show it: active = GI50 up to about 1.1 µM and inactive = higher.

Experiments:
Assay in all cases: growth of human tumour cells (NCI), 48 h
A549 = test system: A549
ACHN = test system: ACHN
CCRF-CEM = test system: CCRF-CEM
HL-60 = test system: HL-60
HOP-62 = test system: HOP-62
K562 = test system: K562
LOX IMVI = test system: LOX IMVI
MDA-MB-435 = test system: MDA-MB-435
NCI-H522 = test system: NCI-H522
NCI/ADR-RES = test system: NCI/ADR-RES
OVCAR-3 = test system: OVCAR-3
SF-539 = test system: SF-539
SK-OV-3 = test system: SK-OV-3
SN12C = test system: SN12C
SNB-75 = test system: SNB-75
SW-620 = test system: SW-620
T47D = test system: T47D
U-251 = test system: U-251
A498 = test system: A498

Row | Structure (SMILES) | GI50 (A549) | GI50 (ACHN) | GI50 (CCRF-CEM) | GI50 (HL-60) | GI50 (HOP-62) | GI50 (K562) | GI50 (LOX IMVI) | GI50 (MDA-MB-435) | GI50 (NCI-H522) | GI50 (NCI/ADR-RES) | GI50 (OVCAR-3) | GI50 (SF-539) | GI50 (SK-OV-3) | GI50 (SN12C) | GI50 (SNB-75) | GI50 (SW-620) | GI50 (T47D) | GI50 (U-251) | GI50 (A498)
1 | Cc1cc2nc3c(C#N)c4c(c(Nc5ccc(F)cc5)n3c2cc1C)CCC4 | > 100 µM (inactive) | > 100 µM (inactive) | > 100 µM (inactive) | > 100 µM (inactive) | > 100 µM (inactive) | > 100 µM (inactive) | > 100 µM (inactive) | > 100 µM (inactive) | 95.5 µM (inactive) | > 100 µM (inactive) | > 100 µM (inactive) | > 100 µM (inactive) | > 100 µM (inactive) | > 100 µM (inactive) | > 100 µM (inactive) | > 100 µM (inactive) | > 100 µM (inactive) | > 100 µM (inactive) | –
2 | CCC1(O)CC(OC2CC(N(C)C)C(OC3CC(O)C(OC4CCC(=O)C(C)O4)C(C)O3)C(C)O2)c2c(O)c3c(c(O)c2C1C(=O)OC)C(=O)c1cccc(O)c1C3=O (stereo not given) | 0.00339 µM (active) | 0.00134 µM (active) | 0.00176 µM (active) | 0.00586 µM (active) | 0.0106 µM (active) | 0.000274 µM (active) | 0.00184 µM (active) | 0.0067 µM (active) | 0.00385 µM (active) | 0.0109 µM (active) | 0.0155 µM (active) | 0.0101 µM (active) | 0.00565 µM (active) | 0.00966 µM (active) | 0.00881 µM (active) | 0.00171 µM (active) | 0.0154 µM (active) | 0.0028 µM (active) | –
3 | COc1cc(/C=C/c2ccc(O)c(OC)c2)cc(OC)c1 | 25.6 µM (inactive) | 22.2 µM (inactive) | 14.4 µM (inactive) | 12.6 µM (inactive) | 50.6 µM (inactive) | 26.4 µM (inactive) | – | – | – | 31 µM (inactive) | – | – | 26.9 µM (inactive) | – | 23.1 µM (inactive) | 30.1 µM (inactive) | 33.9 µM (inactive) | 19.5 µM (inactive) | 21.6 µM (inactive)
4 | O=C1C[C@H](c2ccccc2)O[C@@H](c2ccccc2)C1 | > 100 µM (inactive) | – | > 100 µM (inactive) | – | > 100 µM (inactive) | 26.9 µM (inactive) | > 100 µM (inactive) | > 100 µM (inactive) | – | > 100 µM (inactive) | > 100 µM (inactive) | > 100 µM (inactive) | > 100 µM (inactive) | > 100 µM (inactive) | > 100 µM (inactive) | > 100 µM (inactive) | > 100 µM (inactive) | > 100 µM (inactive) | –
5 | CC/C=C/c1cc2c(cc1O)CCC1C2CC[C@@]2(C)C1CC[C@@H]2O (stereo not given in full) | 4.12 µM (inactive) | 2.14 µM (inactive) | 1.73 µM (inactive) | – | – | 1.28 µM (inactive) | 0.904 µM (active) | 0.246 µM (active) | 0.475 µM (active) | 0.667 µM (active) | 0.265 µM (active) | – | 2.43 µM (inactive) | – | 1.44 µM (inactive) | 1.12 µM (active) | 2.86 µM (inactive) | 1.7 µM (inactive) | 2.56 µM (inactive)
6 | O=C1NC(N2CCCC(CO)C2)=N/C1=C\c1ccc(Cl)cc1 (stereo not given) | > 100 µM (inactive) | > 100 µM (inactive) | > 100 µM (inactive) | > 100 µM (inactive) | > 100 µM (inactive) | > 100 µM (inactive) | 87.5 µM (inactive) | > 100 µM (inactive) | > 100 µM (inactive) | > 100 µM (inactive) | > 100 µM (inactive) | > 100 µM (inactive) | > 100 µM (inactive) | > 100 µM (inactive) | 51.1 µM (inactive) | > 100 µM (inactive) | 75.9 µM (inactive) | > 100 µM (inactive) | –
7 | NCCN(CCN(C(=O)Nc1ccccc1)c1ccccc1)C(=O)Nc1ccccc1 | 30.6 µM (inactive) | 20.5 µM (inactive) | 41.6 µM (inactive) | 18.9 µM (inactive) | 16.7 µM (inactive) | 44.4 µM (inactive) | 19.4 µM (inactive) | – | 19 µM (inactive) | 30.8 µM (inactive) | – | – | 20 µM (inactive) | 23.2 µM (inactive) | 18.1 µM (inactive) | 22.5 µM (inactive) | 20.7 µM (inactive) | 28.9 µM (inactive) | 18.3 µM (inactive)
8 | CC1CNC(NS(=O)(=O)c2cc(C(=O)Nc3ccc(Cl)cc3)c(Cl)cc2S)=NN1 (stereo not given) | 28.6 µM (inactive) | 40 µM (inactive) | 34.9 µM (inactive) | > 100 µM (inactive) | 41.5 µM (inactive) | 31.1 µM (inactive) | 27.4 µM (inactive) | 23.4 µM (inactive) | 28.2 µM (inactive) | 36.6 µM (inactive) | 28.2 µM (inactive) | 30.8 µM (inactive) | 59.4 µM (inactive) | 38.8 µM (inactive) | – | 34.1 µM (inactive) | – | 37.2 µM (inactive) | 18.1 µM (inactive)
